Assay results from patent US10131669B2, “Pyrazolopyrimidine compounds” (Pfizer Inc., priority 2014, dated 2018).

Legend:
Assay type in all cases: biochemical
Human PDE4A3 = molecular target: T1, Human PDE4A3 (Homo sapiens, UniProt P27815); assay: PDE4A3 Scintillation Proximity Assay (SPA), inhibition of enzyme activity; conditions: geometric mean of 2-7 determinations unless otherwise indicated (b: ≥8 determinations; c: single determination), 1 μM cAMP, 30 min at 25° C., read-out: Human PDE4A FL
T1 construct: His6 (N); FLAG (C); made in house; host or cells: insect cells (baculovirus, pFastBac)
T1 sequence (P27815 2-825 isoform P27815-6): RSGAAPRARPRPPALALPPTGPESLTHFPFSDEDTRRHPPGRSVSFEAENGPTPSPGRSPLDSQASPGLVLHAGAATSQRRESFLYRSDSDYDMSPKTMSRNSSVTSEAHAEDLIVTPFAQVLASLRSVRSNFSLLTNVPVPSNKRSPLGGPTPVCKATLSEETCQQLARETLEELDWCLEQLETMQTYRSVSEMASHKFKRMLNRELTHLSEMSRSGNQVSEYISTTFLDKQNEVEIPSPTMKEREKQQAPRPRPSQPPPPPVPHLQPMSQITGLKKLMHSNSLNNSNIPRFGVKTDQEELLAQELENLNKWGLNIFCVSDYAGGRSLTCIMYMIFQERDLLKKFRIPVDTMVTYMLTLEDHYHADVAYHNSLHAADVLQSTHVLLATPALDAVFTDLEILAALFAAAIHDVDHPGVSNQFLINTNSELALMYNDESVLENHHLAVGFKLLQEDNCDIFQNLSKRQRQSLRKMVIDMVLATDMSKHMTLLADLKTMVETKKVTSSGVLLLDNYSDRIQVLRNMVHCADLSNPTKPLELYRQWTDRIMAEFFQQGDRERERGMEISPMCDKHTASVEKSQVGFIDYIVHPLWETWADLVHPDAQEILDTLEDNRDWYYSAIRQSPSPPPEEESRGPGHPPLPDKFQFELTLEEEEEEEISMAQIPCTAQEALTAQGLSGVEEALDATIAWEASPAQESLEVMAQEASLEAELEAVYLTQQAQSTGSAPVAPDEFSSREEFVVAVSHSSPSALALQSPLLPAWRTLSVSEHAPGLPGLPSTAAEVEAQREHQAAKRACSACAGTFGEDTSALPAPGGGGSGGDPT
Text: (§1) Human PDE4A3 coding sequence (amino acids 2 to 825 from the sequence with accession number NP_001104779) was cloned into the baculovirus expression vector pFastBac (Invitrogen) engineered to include an N-terminal His6 affinity tag and a c-terminal FLAG affinity tag to aid in purification. The recombinant Bacmid was isolated and used to transfect insect cells to generate a viral stock. To generate cell paste for purification, insect cells were infected with the virus stock and cells were harvested 72 hours after infection. Insect cell paste was lysed and after centrifugation, the supernatant was batch bound to Ni-NTA agarose (GE Healthcare) and eluted with 250 mM imidazole. This eluate was diluted with FLAG buffer (50 mM Tris HCL pH 7.5, 100 mM NaCl, 5% Glycerol, 1 mM TCEP with protease inhibitors) and batch bound to ant-FLAG M2 agarose (Sigma) overnight at 4° C. The agarose was packed into a column, washed with buffer and eluted with buffer containing elute using 250 ug/ml Flag-peptide. Fractions were analyzed using SDS-PAGE Coomassie blue staining and pooled based on purity. Pooled fractions were chromatographed on a S200 120 ml column (GE Healthcare) in 50 mM Tris HCL pH 7.5, 150 mM NaCl, 10% Glycerol, 2 mM TCEP with protease inhibitors. PDE4A3 fractions were analyzed by SDS-PAGE Coomassie blue staining, pooled based on purity, dialyzed against 50 mM Tris HCL pH 7.5, 100 mM NaCl, 20% Glycerol, 2 mM TCEP, frozen and stored at −80° C.
(§2) The PDE4A3, PDE4B1, PDE4C1 and PDE4D3 assays use the Scintillation Proximity Assay (SPA) technology to measure the inhibition of human recombinant […], PDE4C1, and PDE4D3 enzyme activity by compounds in vitro. The PDE4A1, PDE4B3, PDE4C1, and PDE4D3 assays are run in parallel using identical parameters, except for the concentration of enzyme (80 pM PDE4A3, 40 pM PDE4B3, 40 pM PDE4C1 and 10 pM PDE4D). The assays are performed in a 384-well format with 50 uL assay buffer (50 mM TRIS pH7.5; 1.3 mM MgCl2; 0.01% Brij) containing enough PDE4A3, PDE4B1, PDE4C1, and PDE4D to convert ˜20% of substrate (1 μM cAMP consisting of 20 nM 3H-cAMP+[…] cold cAMP) and a range of inhibitors. Reactions are incubated for 30 min at 25° C. The addition of 20 uL of 8 mg/ml yitrium silicate SPA beads (Perkin Elmer) stops the reaction. The plates are sealed (TopSeal, Perkin Elmer) and the beads are allowed to settle for 8 hrs, after which they are read on the Trilux Microbeta overnight.

Human PDE4B1 = molecular target: T2, Human PDE4B1 (Homo sapiens, UniProt Q07343, S133E/S654A/S659A/S661A); assay: PDE4B1 Scintillation Proximity Assay (SPA), inhibition of enzyme activity; conditions: geometric mean of 2-7 determinations unless otherwise indicated (b: ≥8 determinations; c: single determination); 1 μM cAMP, 30 min at 25° C.; read-out: Human PDE4B FL; IC50
T2 construct: His6 (N); thrombin cleavage site (N); made in house; host or cells: insect cells (baculovirus, pFastBac)
T2 sequence (Q07343 122-736 S133E/S654A/S659A/S661A): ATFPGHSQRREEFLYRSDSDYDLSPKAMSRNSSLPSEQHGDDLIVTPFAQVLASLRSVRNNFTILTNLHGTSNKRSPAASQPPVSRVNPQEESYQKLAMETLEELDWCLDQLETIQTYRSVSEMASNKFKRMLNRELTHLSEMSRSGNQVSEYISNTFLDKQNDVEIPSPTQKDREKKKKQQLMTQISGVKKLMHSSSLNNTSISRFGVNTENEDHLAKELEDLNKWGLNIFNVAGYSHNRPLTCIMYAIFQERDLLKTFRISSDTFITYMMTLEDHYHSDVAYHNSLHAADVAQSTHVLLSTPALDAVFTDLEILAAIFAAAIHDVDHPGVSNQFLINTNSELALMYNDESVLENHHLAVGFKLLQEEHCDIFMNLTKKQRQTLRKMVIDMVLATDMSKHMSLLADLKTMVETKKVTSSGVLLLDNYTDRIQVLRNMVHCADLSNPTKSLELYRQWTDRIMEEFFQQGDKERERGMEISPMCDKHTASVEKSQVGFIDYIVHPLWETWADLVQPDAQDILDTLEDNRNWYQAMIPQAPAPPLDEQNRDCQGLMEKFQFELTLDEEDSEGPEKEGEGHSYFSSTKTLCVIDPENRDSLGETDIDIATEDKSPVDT
Method: The recombinant Bacmid was isolated and used to transfect insect cells to generate a viral stock. To generate cell paste for purification, insect cells were infected with the virus stock and cells were harvested 72 hours after infection as described in Seeger, T. F. et al., Brain Research 985 (2003) 113-126. Insect cell paste was lysed and after centrifugation, the supernatant was chromatographed on Ni-NTA agarose (Qiagen) as described in Seeger, T. F. et al., Brain Research 985 (2003) 113-126. Ni-NTA agarose eluting fractions containing PDE4 were pooled, diluted with Q buffer A (20 mM Tris HCl pH 8, 5% glycerol, 1 mM TCEP) to reduce NaCl to ˜100 mM and loaded on a Source 15Q (GE Healthcare) column. After washing with Q buffer A/10% buffer B to baseline, PDE4D was eluted with a gradient from 10% to 60% of Buffer B (20 mM Tris HCl pH 8, 1 M NaCl, 5% glycerol, 1 mM TCEP). PDE4D fractions were analyzed by SDS-PAGE Coomassie blue staining, pooled based on purity, frozen and stored at −80° C.
as §2

Human PDE4C1 = molecular target: T3, Human PDE4C1 (Homo sapiens, UniProt Q08493); assay: PDE4C1 Scintillation Proximity Assay (SPA), inhibition of enzyme activity; conditions: geometric mean of 2-7 determinations unless otherwise indicated (b: ≥8 determinations; c: single determination), 1 μM cAMP, 30 min at 25° C., read-out: Human PDE4C FL
T3 construct: His6 (N); FLAG (C); made in house; host or cells: insect cells (baculovirus, pFastBac)
T3 sequence (Q08493 2-712): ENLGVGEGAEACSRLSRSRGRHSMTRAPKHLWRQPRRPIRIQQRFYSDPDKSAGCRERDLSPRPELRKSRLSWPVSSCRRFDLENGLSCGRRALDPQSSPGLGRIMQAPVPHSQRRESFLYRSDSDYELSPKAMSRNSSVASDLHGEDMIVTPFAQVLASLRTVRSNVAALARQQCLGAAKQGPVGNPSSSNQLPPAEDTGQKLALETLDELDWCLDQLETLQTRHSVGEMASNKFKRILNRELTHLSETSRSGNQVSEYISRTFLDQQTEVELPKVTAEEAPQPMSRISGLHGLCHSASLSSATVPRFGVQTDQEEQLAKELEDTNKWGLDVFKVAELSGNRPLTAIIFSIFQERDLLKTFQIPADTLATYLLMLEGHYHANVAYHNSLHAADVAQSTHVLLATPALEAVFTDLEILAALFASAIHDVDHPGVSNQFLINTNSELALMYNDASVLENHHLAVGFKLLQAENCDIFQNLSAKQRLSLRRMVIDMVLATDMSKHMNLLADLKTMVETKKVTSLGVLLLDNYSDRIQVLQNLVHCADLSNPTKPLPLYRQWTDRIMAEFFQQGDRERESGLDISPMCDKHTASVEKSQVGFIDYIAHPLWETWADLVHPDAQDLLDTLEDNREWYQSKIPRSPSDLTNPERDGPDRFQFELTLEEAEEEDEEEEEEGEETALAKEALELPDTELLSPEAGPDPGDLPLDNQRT
Method: as §1, with “The” for “Human PDE4A3 coding sequence (amino acids 2 to 825 from the sequence with accession number NP_001104779) was cloned into the baculovirus expression vector pFastBac (Invitrogen) engineered to include an N-terminal His6 affinity tag and a c-terminal FLAG affinity tag to aid in purification. The”, “PDE4C1” for “PDE4A3”
as §2

human PDE4D3 = molecular target: T4, human PDE4D3 (Homo sapiens, UniProt Q08499); assay: PDE4D3 Scintillation Proximity Assay (SPA), inhibition of enzyme activity; conditions: geometric mean of 2-7 determinations unless otherwise indicated (b: ≥8 determinations; c: single determination); 1 μM cAMP, 30 min at 25° C.; read-out: Human PDE4D FL; IC50
T4 construct: His6 (C); made in house; host or cells: insect cells (baculovirus, pFastBac)
T4 sequence (Q08499 186-808): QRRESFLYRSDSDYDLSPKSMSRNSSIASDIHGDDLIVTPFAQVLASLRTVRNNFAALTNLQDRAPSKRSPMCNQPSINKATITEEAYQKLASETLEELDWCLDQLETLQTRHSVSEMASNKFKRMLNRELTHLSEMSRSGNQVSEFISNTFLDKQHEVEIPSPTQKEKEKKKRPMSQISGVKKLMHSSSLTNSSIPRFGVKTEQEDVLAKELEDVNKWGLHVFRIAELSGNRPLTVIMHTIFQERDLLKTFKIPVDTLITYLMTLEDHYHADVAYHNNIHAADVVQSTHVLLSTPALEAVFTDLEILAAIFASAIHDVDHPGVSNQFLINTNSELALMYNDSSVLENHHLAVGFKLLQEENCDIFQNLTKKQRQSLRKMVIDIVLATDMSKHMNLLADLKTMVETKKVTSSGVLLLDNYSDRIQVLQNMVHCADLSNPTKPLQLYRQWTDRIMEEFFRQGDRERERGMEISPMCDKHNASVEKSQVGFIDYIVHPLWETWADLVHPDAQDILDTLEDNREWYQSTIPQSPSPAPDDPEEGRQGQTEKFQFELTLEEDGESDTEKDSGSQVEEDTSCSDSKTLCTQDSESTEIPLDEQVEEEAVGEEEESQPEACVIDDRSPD
Method: The recombinant Bacmid was isolated and used to transfect insect cells to generate a viral stock. To generate cell paste for purification, insect cells were infected and cells were harvested 72 hours after infection. Insect cell paste was lysed and after centrifugation, the supernatant was chromatographed on Ni-NTA agarose (Qiagen) as described in Seeger, T. F. et al., Brain Research 985 (2003) 113-126. Ni-NTA agarose eluting fractions containing PDE4 were pooled, diluted with Q Buffer A (50 mM Tris HCl pH 8, 4% glycerol, 100 mM NaCl, 1 mM TCEP, Protease inhibitors EDTA-free (Roche)) to reduce NaCl to ˜200 mM, and loaded on a Q Sepharose (GE Healthcare) column. After washing with Q buffer A to baseline, PDE4D was eluted with a gradient from 10% to 60% of Buffer B (50 mM Tris HCl pH 8, 1 M NaCl, 4% glycerol, 1 mM TCEP). PDE4D fractions were analyzed by SDS-PAGE Coomassie blue staining, pooled based on purity, frozen and stored at −80° C.
as §2

Row | IC50 (Human PDE4A3) [nM] | IC50 (Human PDE4B1) [nM] | IC50 (Human PDE4C1) [nM] | IC50 (human PDE4D3) [nM] | SMILES
1 | 120 | 138 | 449 | > 12300 | CC1CC1NC(=O)c1nn2cccnc2c1-c1ccc(Cl)cc1 (centres unmarked) [Example 34, 3-(4-chlorophenyl)-N-(2-methylcyclopropyl)pyrazolo[1,5-a]pyrimidine-2-carboxamide]
2 | 4.69 | 24.4 | 13.9 | 819 | O=C(NC1CC1)c1nn2cccnc2c1-c1cc(F)c(Cl)cc1F [Example 47, 3-(4-chloro-2,5-difluorophenyl)-N-cyclopropylpyrazolo[1,5-a]pyrimidine-2-carboxamide]
3 | 0.77 | 3.02 | 5.18 | 43 | O=C(NC1CC1)c1nn2cc(F)cnc2c1-c1cc(F)c(Cl)cc1F [Example 72, 3-(4-chloro-2,5-difluorophenyl)-N-cyclopropyl-6-fluoropyrazolo[1,5-a]pyrimidine-2-carboxamide]
4 | 80.8 | 62.4 | 276 | > 10700 | CC1(NC(=O)c2nn3cccnc3c2-c2ccc(Cl)cc2)CC1 [Example 11, 3-(4-chlorophenyl)-N-(1-methylcyclopropyl)pyrazolo[1,5-a]pyrimidine-2-carboxamide]
5 | 55.8 | 124 | 217 | 6200 | O=C(NC12CC(C1)C2)c1nn2cccnc2c1-c1ccc(Cl)cc1 [Example 27, N-(bicyclo[1.1.1]pent-1-yl)-3-(4-chlorophenyl)pyrazolo[1,5-a]pyrimidine-2-carboxamide]
6 | 192 | 358 | 898 | > 11900 | N#Cc1ccc(-c2c(C(=O)NC3CC3)nn3cccnc23)cn1 [Example 44, 3-(6-cyanopyridin-3-yl)-N-cyclopropylpyrazolo[1,5-a]pyrimidine-2-carboxamide]
7 | 22 | 51 | 42.1 | 1320 | N#Cc1cc(F)c(-c2c(C(=O)NC3CC3)nn3cccnc23)cc1F [Example 45, 3-(4-cyano-2,5-difluorophenyl)-N-cyclopropylpyrazolo[1,5-a]pyrimidine-2-carboxamide]
8 | 64.5 | 67.4 | 111 | 10900 | O=C(c1nn2cccnc2c1-c1ccc(Cl)cc1F)N1CCC1 [Example 20, azetidin-1-yl[3-(4-chloro-2-fluorophenyl)pyrazolo[1,5-a]pyrimidin-2-yl]methanone]
9 | 7.66 | 32 | 21.8 | 830 | CCNC(=O)c1nn2cccnc2c1-c1ccc(Cl)c(F)c1 [Example 53, 3-(4-chloro-3-fluorophenyl)-N-ethylpyrazolo[1,5-a]pyrimidine-2-carboxamide]
10 | 16.6 | 44.6 | 56.5 | 4830 | Cc1cc(Cl)ccc1-c1c(C(=O)N2CCC2)nn2cccnc12 [Example 21, azetidin-1-yl[3-(4-chloro-2-methylphenyl)pyrazolo[1,5-a]pyrimidin-2-yl]methanone]
11 | 51.8 | 179 | 83.3 | > 16700 | O=C(NC1CC1)c1nn2cccnc2c1-c1ccc(Cl)cc1F [Example 14, 3-(4-chloro-2-fluorophenyl)-N-cyclopropylpyrazolo[1,5-a]pyrimidine-2-carboxamide]
12 | 11.3 | 41.4 | 36.4 | 2110 | CCNC(=O)c1nn2cccnc2c1-c1cc(F)c(Cl)cc1F [Example 19, 3-(4-chloro-2,5-difluorophenyl)-N-ethylpyrazolo[1,5-a]pyrimidine-2-carboxamide]
13 | 57 | 59 | 128 | 1160 | O=C(NC1CC1)c1nn2cc(F)cnc2c1-c1ccc2ocnc2c1 [Example 65, 3-(1,3-benzoxazol-5-yl)-N-cyclopropyl-6-fluoropyrazolo[1,5-a]pyrimidine-2-carboxamide]
14 | 8.53 | 35.4 | 44 | 606 | Cc1cc(Cl)c(F)cc1-c1c(C(=O)NC2CCC2)nn2cccnc12 [Example 24, 3-(4-chloro-5-fluoro-2-methylphenyl)-N-cyclobutylpyrazolo[1,5-a]pyrimidine-2-carboxamide]
15 | 663 | 2070 | 435 | > 28500 | CNC(=O)c1nn2cccnc2c1-c1ccc(Cl)cc1 [Example 73, 3-(4-chlorophenyl)-N-methylpyrazolo[1,5-a]pyrimidine-2-carboxamide]
16 | 3.31 | 16.8 | 32.9 | 261 | N#Cc1ccc(-c2c(C(=O)N3CCC3)nn3cc(F)cnc23)cc1F [Example 68, 4-[2-(azetidin-1-ylcarbonyl)-6-fluoropyrazolo[1,5-a]pyrimidin-3-yl]-2-fluorobenzonitrile]

Row | SMILES | IC50 (Human PDE4A3) [nM] | IC50 (Human PDE4B1) [nM] | IC50 (Human PDE4C1) [nM] | IC50 (human PDE4D3) [nM]
17 | N#Cc1c(F)cc(-c2c(C(=O)N3CCC3)nn3cccnc23)cc1F [Example 62, 4-[2-(azetidin-1-ylcarbonyl)pyrazolo[1,5-a]pyrimidin-3-yl]-2,6-difluorobenzonitrile] | 4.33 | 17.3 | 37.8 | 242
